What was measured:
[1] = system: doxorubicin-induced cardiomyopathy; test: Doxorubicin-induced cardiomyopathy in mice; format: in vivo, C57BL/6 mice
Procedure: The purpose of this study was to assess the protective effect of dexrazoxan or the zinc-dexrazoxan complex, administered with or without Ga-DFO, against doxorubicin-induced cardiomyopathy.
C57BL/6 mice are injected once with doxorubicin, 20 mg/kg, i.p., and then divided into the following 5 groups: Group 1: untreated; Group 2: treated with dexrazoxan single dose of 400 mg/kg i.v.; Group 3: treated with the zinc complex of dexrazoxan single dose of 100 mg/kg i.v.; Group 4: treated with the Ga-DFO complex 6 mg/kg, and Group 5: treated with the zinc complex of dexrazoxan single dose of 50 mg/kg i.v. together with Ga-DFO 4 mg/kg. The animals are monitored for 21 days, measuring their survival (Kaplan-Meier curves). On Day 21 the animals are sacrificed, and their hearts are assessed histologically for cardiac remodeling and hypertrophy (collagen % or area).

[2] = Keberle, 1964; cited from earlier work
[3] = Keberle, 1964; cited from earlier work; remark: listed apart in the source
[4] = Keberle, 1964; cited from earlier work; remark: listed apart in the source
[5] = Keberle, 1964; cited from earlier work; remark: listed apart in the source

Compound	survival ([1]; Day 15 after doxorubicin 20 mg/kg i.p., about 90% of untreated mice die)	collagen % of the area (cardiac histology) ([1]; Day 21 after doxorubicin 20 mg/kg i.p., untreated about 10-12%)	relative stability constant of DFO complex with Fe(III) [2]	relative stability constant of DFO complex with Cu(II) [3]	relative stability constant of DFO complex with Zn(II) [4]	relative stability constant of DFO complex with Ga(III) [5]
C[C@@H](CN1CC(=O)NC(=O)C1)N1CC(=O)NC(=O)C1 [dexrazoxan]	about 50%	about 9%				
CC(=O)N(O)CCCCCNC(=O)CCC(=O)N(O)CCCCCNC(=O)CCC(=O)N(O)CCCCCN [DFO, N′-[5-(acetyl-hydroxy-amino)pentyl]-N-[5-[3-(5-aminopentyl-hydroxy-carbamoyl)propanoylamino]pentyl]-N-hydroxy-butane diamide]			10^31	10^14	10^11	10^28
